Experimental data from patent publication US20240199564A1, “TRPM8 AGONISTS AS COOLING AGENTS AND FOR THE TREATMENT OF DISEASE” (Concentric Analgesics, Inc., priority 2021, published 2024).
Counter-ions that a name gives are not always drawn. Like-named read-outs stand apart in the source and are kept apart here.

Key:
[1] = Solution state stability assay; type: physicochemical; settings: 50° C.; for % degradation at 28 days: HPLC; for aqueous stability / hydrolysis, comparison in words: buffer, 28 days
Description: Compounds were incubated in the buffer media indicated (ingredients for making of PBS buffer and sodium citrate/citric acid buffer were obtained from Sigma-Aldrich, St. Louis, MO, USA). The reactions were conducted at either 50° C. and for 28 days. Samples were collected at specific time points and analyzed for % degradation of the parent compound based on UV/Vis analysis.
Methods: Samples were weighed using a Mettler Toledo XS105 analytical balance (accurate to +/−0.01 mg). Accurate dilutions were made with a P1000, P200, or P20 Gilson Pipetman, or an Eppendorf Maxipettor 1-10 mL pipettor. pH Measurements were made with a Hanna Instruments HI 4222 pH meter and a Hanna instruments HI 1330B micro pH probe. Samples were analyzed via high pressure liquid chromatography using an Agilent series 1100 HPLC instrument with a Grace Alltima column. Chromatograms were manually integrated. Individual chromatograms are assigned an automatic HPLC identification number.
Freshly prepared 1.0 mg/mL solution of each compound listed in Table # was allotted into two-dram clear glass vials. […] The vials were then stored in an oven set to 50° C. At the appropriate time points, the vials were removed from the oven, vortexed for 30 seconds and an aliquot (400 μL) was pipetted into an HPLC vial and quenched with 1% TFA in ACN (400 μL). […] For all samples, aliquots were taken after 28 days. Quenched vials were immediately analyzed via HPLC.

[2] = biological target: T1, human TRPM8 receptor expressed in transfected 293H cells (Homo sapiens, UniProt Q7Z2W7); assay: TRPM8 Human Transient Potential Ion Channel Cell Based Agonist Calcium Flux Assay (FLIPR)
T1 construct: expressed in transfected cells; host or cells: 293H cells
Source text: This example discloses results from TRPM8 Human Transient Potential Ion Channel Cell Based Agonist Calcium Flux Assay. Evaluation of the agonist activity of compounds at the human TRPM8 receptor expressed in transfected 293H cells, determined by measuring their effect on cytosolic Ca2+ ion mobilization using a fluorometric detection method.
Protocol: The cells are suspended in DMEM buffer (Invitrogen), then distributed in microplates at a density of 3×10^4 cells/well. The fluorescent probe (Fluo4 Direct, Invitrogen) in HBSS buffer (Invitrogen) complemented with 20 mM Hepes (Invitrogen) (pH 7.4) is then added into each well and equilibrated with the cells for 60 min at 37° C. then 15 min at 22° C. Thereafter, the assay plates are positioned in a microplate reader (CellLux, PerkinElmer) which is used for the addition of the test compound, reference agonist or HBSS buffer (basal control), and the measurements of changes in fluorescence intensity which varies proportionally to the free cytosolic Ca2+ ion concentration. For stimulated control measurements, Icilin at 3 μM is added in separate assay wells. The results are expressed as a percent of the control response to 3 μM icilin. The standard reference agonist is Icilin, which is tested in each experiment at several concentrations to generate a concentration-response curve from which its EC50 value is calculated. (Behrendt, H. J., Germann, T., Gillen, C and Hatt, H. and Jostock, R. (2004), Characterization of the mouse cold-menthol receptor TRPM8 and vanilloid receptor type-1 VR1 using a fluorometric imaging plate reader (FLIPR) assay, Br. J. Pharmacol., 141: 737.)
Data analysis: EC50 values were determined as the concentration of test substance required to produce half-maximal increases in [Ca^2+]. Maximal [Ca^2+] responses were measured as peak fluorescence intensity (FI) minus basal FI, and expressed as percentages of the maximum response to icilin. Data are given as means±s.e.m., unless otherwise stated.
The EC50 values (concentration producing a half-maximal response) and IC50 values (concentration causing a half-maximal inhibition of the control agonist response) were determined by non-linear regression analysis of the concentration-response curves generated with mean replicate values using Hill equation curve fitting:
where Y=response, A=left asymptote of the curve, D=right asymptote of the curve, C=compound concentration, and C50=EC50, and nH=slope factor.

[3] = cited from earlier work
[4] = Solubility assay in DI water; type: physicochemical; settings: thermodynamic from solid, HCl salts, visual, stepwise dilution from 200 mg/mL, sonication and vortex
Description: In order to determine the aqueous solubility of the compounds indicated, the HCl salts of the following compounds were incubated at 200 mg/mL in DI water followed by sonication for 60 seconds and then vortex stirring for 60 seconds. If insoluble material was observed, the sample was diluted to 150, 100, 50, 25, or 20 mg/mL until no insoluble material was observed. After each dilution, each sample was sonicated for 60 seconds, vortexed for 60 seconds and let equilibrate with occasional shaking for 30 minutes.

[5] = pH = ~5.0 (0.2 M aqueous sodium citrate/citric acid buffer)
[6] = pH = ~7.4 (1X Phosphate Buffered Saline)
[7] = Ca2+ mobilization, fluorometric detection, 293H cells, response relative to 3 μM icilin, read-out: TRPM8 agonist EC50

T1 sequence (Q7Z2W7 whole entry): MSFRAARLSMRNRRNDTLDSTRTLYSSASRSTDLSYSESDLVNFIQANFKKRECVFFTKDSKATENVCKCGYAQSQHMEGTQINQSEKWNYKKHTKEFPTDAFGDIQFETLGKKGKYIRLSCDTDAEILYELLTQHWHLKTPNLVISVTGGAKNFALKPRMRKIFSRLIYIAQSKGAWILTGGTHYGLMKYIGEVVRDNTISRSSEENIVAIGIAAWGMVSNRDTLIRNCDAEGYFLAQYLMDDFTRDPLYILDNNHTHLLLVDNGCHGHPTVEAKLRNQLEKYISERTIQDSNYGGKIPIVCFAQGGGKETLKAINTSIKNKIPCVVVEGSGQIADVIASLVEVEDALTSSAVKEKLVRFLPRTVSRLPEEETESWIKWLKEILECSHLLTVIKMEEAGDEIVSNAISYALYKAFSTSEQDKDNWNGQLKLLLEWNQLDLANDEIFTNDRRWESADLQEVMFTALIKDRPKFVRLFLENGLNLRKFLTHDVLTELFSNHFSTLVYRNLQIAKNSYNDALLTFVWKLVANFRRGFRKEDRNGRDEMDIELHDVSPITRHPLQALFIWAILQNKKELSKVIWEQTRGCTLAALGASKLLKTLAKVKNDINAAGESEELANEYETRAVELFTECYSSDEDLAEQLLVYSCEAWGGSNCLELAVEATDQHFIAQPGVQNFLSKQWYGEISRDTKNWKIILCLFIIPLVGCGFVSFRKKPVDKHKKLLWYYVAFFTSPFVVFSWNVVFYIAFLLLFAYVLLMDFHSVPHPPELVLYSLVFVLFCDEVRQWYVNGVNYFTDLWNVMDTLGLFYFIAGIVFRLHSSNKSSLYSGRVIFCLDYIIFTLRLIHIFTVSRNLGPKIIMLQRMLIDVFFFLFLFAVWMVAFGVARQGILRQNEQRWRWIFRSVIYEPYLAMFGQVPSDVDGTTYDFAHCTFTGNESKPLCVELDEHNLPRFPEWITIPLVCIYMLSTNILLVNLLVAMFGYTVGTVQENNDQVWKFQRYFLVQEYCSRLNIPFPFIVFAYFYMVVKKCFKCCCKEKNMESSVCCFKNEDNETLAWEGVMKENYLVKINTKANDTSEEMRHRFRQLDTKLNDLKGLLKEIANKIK

Row | % degradation at 28 days [1, 5] | % degradation at 28 days [1, 6] | EC50 [2, 7] | Compound | further results
1 | Noneª None^b | Noneª None^b | 752 nM | CC(C)[C@@H]1CC[C@@H](C)C[C@H]1C(=O)N(C)Cc1cccc(CN(C)C)c1.Cl [Compound 3, (1R,2S,5R)-N-(3-((dimethylamino)methyl)benzyl)-2-isopropyl-N,5-dimethylcyclohexanecarboxamide hydrochloride] | aqueous stability / hydrolysis, comparison in words [1]: greatest aqueous stability
2 | ~0.4% | ~8.1% |  | CC(C)[C@@H]1CC[C@@H](C)C[C@H]1OCC(=O)N(C)c1cccc(CN)c1 [Aniline 3] | aqueous stability / hydrolysis, comparison in words [1]: more stable
3 | ~23.5% | ~31.9% |  | CC(C)[C@@H]1CC[C@@H](C)C[C@H]1C(=O)N(C)c1cccc(CN)c1 [Aniline 4] | 
4 | ~7.1% | ~1.7% | 100 nM | CC(C)[C@@H]1CC[C@@H](C)C[C@H]1C(=O)NCc1ccc(CN)cc1.Cl [Compound 4, (1R,2S,5R)-N-(4-(aminomethyl)benzyl)-2-isopropyl-5-methylcyclohexanecarboxamide hydrochloride] | solubility at 30 min ([4]; DI water): ≥ 20 mg/mL; aqueous stability / hydrolysis, comparison in words [1]: greatest aqueous stability

The remaining lines, values behind:

Row | Compound | % degradation at 28 days [1, 5] | % degradation at 28 days [1, 6] | EC50 [2, 7] | further results
5 | CC(C)[C@@H]1CC[C@@H](C)C[C@H]1OC(=O)N(C)c1cccc(CN)c1 [Aniline 2] | ~24.3% | ~24.4% |  | 
6 | CC(C)[C@@H]1CC[C@@H](C)C[C@H]1O [menthol, (1R,2S,5R)-2-isopropyl-5-methylcyclohexanol] |  |  |  | known aqueous solubility in water [3]: ~0.4 mg/mL
7 | CC(C)[C@@H]1CC[C@@H](C)C[C@H]1OC(=O)Nc1cccc(CN)c1 [Aniline 1] | ~36.2% | ~41.2% |  | 
8 | CC(C)[C@@H]1CC[C@@H](C)C[C@H]1C(=O)NCc1ccc(C2CCNCC2)cc1.Cl [Compound 16, (1R,2S,5R)-2-isopropyl-5-methyl-N-(4-(piperidin-4-yl)benzyl)cyclohexanecarboxamide hydrochloride] |  |  | 345 nM | solubility at 30 min ([4]; DI water): ≥ 20 mg/mL
9 | CC(C)[C@@H]1CC[C@@H](C)C[C@H]1C(=O)NCc1ccc(CN2CCNCC2)cc1.Cl.Cl [Compound 15, (1R,2S,5R)-2-isopropyl-5-methyl-N-(4-(piperazin-1-ylmethyl)benzyl)cyclohexanecarboxamide dihydrochloride] |  |  |  | solubility at 30 min [4]: ≥ 200 mg/mL; EC50 [2]: 79 nM
10 | CC(N)c1ccc(CNC(=O)[C@@H]2C[C@H](C)CC[C@H]2C(C)C)cc1 (stereo partly drawn) [Compound 13, (1R,2S,5R)-N-(4-(1-aminoethyl)benzyl)-2-isopropyl-5-methylcyclohexanecarboxamide hydrochloride] |  |  | 153 nM | 
11 | CC(C)[C@@H]1CC[C@@H](C)C[C@H]1C(=O)NCc1ccc(N2CCNCC2)cc1.Cl.Cl [Compound 10, (1R,2S,5R)-2-isopropyl-5-methyl-N-(4-(piperazin-1-yl)benzyl)cyclohexanecarboxamide dihydrochloride] |  |  | 110 nM | solubility at 30 min [4]: ≥ 200 mg/mL
12 | CC(C)[C@@H]1CC[C@@H](C)C[C@H]1C(=O)NCc1ccc(CN(C)Cc2ccccc2)cc1 [Compound 19, (1R,2S,5R)-N-(4-((benzyl(methyl)amino)methyl)benzyl)-2-isopropyl-5-methylcyclohexanecarboxamide hydrochloride] |  |  | 34800 nM | 
